# Laboratory results published in patent US20230248689A1, “PHARMACEUTICAL FORMULATIONS OF GRISEOFULVIN FOR LONG-TERM OCULAR DELIVERY” (Purdue Research Foundation, priority 2020, published 2023).
# Experiments:
# [1] = system: human retinal endothelial cells (HREC); assay: Long-term proliferation assay on HRECs with release samples collected over time; format: cell-based
# Procedure: The formulations of the present invention, i.e. microparticles (MPs) or nanoparticles (NPs) of the griseofulvin (GRF) were tested for in vitro cell study, in particular long-term proliferation assay. This study provides an estimation of in vivo effect of griseofulvin formulations. To compare the long-term antiproliferative effect on human retinal endothelial cells (HREC), time averaged proliferation inhibition index (PII) was calculated (Σ AUC/time) from the plot of % proliferation at each time vs. time. The higher the PII indicating the prolonged anti-proliferative effects on HREC.
# The long-term anti-proliferation effect of GRF loaded NPs from example 3B was studied, wherein GRF-PLGA-NPs were dispersed in 0.5 mL of growth media at GRF concentration ranging from 600 μM to 1200 μM. At specific time points (1, 2, 3, 4, 5, 6, 7, 10, 15, 20, and 25 days), tubes were centrifuged at 5k rpm for 5 minutes and the supernatant was collected and stored at −80° C. Pellet was redispersed in 0.5 mL fresh media, and the incubation was continued. […]
# Human retinal endothelial cells (HREC) were plated in transparent 96 well plates at a density of 2500 cells per well in 100 μL of growth medium and incubated for 24 h at 37° C. […] Fluorescence intensity of each well was read with excitation and emission wavelengths of 560 nm and 590 nm, respectively. […]
# [2] = system: human retinal endothelial cells (HRECs); assay: Anti-proliferative effect on HRECs (Alamar Blue); format: cell-based; settings: 100 μM GRF equivalent, 48 hours
# Procedure: Human retinal endothelial cells (HREC) were plated in transparent 96 well plates at a density of 2500 cells per well in 100 μL of growth medium and incubated for 24 h at 37° C. The medium was replaced with the samples collected at different time points. After 48 hours incubation, 11.1 μL Alamar Blue reagent was added to each well. After 4 hours incubation, plates were centrifuged at 200 g for 5 minutes, and 50 μL supernatant was transferred to black 96 well plates. Fluorescence intensity of each well was read with excitation and emission wavelengths of 560 nm and 590 nm, respectively.
compound,measurement,setting,value
"COC1=CC(=O)C[C@@H](C)[C@]12Oc1c(Cl)c(OC)cc(OC)c1C2=O [Free GRF, (2S,6′R)-7-chloro-2′,4,6-trimethoxy-6′-methyl-3H-spiro[benzofuran-2,1′-cyclohexan]-2′-ene-3,4′-dione]",long-term anti-proliferative effect on HREC (in words),[1]; release samples over the incubation period,effective only at the first time point
same,time averaged proliferation inhibition index (PII),"[1]; Σ AUC/time from % proliferation vs. time plot, HREC",13.6
same,inhibited proliferation of HRECs,[2],53.5%
